Experimental data published in patent publication US20240165123A1, “USE OF A COMPOUND CONTAINING A TRICYCLIC HETEROARYL GROUP” (CSPC Zhongqi Pharmaceutical Technology (Shijiazhuang) Co., …, priority 2021, published 2024).

Test system: IMQ-induced mouse psoriasis model
Assay: Pharmacodynamic test in the IMQ-induced mouse psoriasis model
Type: in vivo, female Balb/c mice
Set-up: key to Skin PASI score Erythema / Skin PASI score Scaling / Skin PASI score Thickness: PASI component score, 0-4 points; key to Skin PASI Total Score: sum of erythema, scaling, thickness scores (each 0-4); key to Skin pathological score: sum of histopathology criterion points
Conditions: for Epidermal thickness / IL-6 content in skin (ELISA) / Skin pathological score / Spleen weight / Spleen weight/body weight (spleen index) / TNF-alpha content in skin (ELISA): after 14 days of treatment
Source text: The purpose of this test was to evaluate the pharmacodynamics of Compound (I) in the IMQ (5% imiquimod cream cream)-induced mouse psoriasis model. One of the clinical adverse effects of imiquimod is to induce the onset of psoriasis.
• Test medicament: Compound (I) • Positive control medicament: dexamethasone (Dex) • Vehicle: 0.4% Tween 80/0.5% methylcellulose.
• female Balb/c mice aged 5-6 weeks, number: 70.
The animals were randomly divided into seven groups according to the body weights on the day before the start of the experiment.
The animals were shaved on their back one day before applying the medicament, forming a skin exposure area having a size of about 2 cm×3 cm. The mice were induced by IMQ, and applied with 62.5 mg of 5% imiquimod cream on the bare back and the right ear at regular intervals every day for 14 days. Mice in the normal control group were applied with vaseline on the bare back and the right ear at regular intervals every day.
The skin thickness was measured daily from the first day of the test until the end of the test.
The skin thickness measurement method was as follows: the back skin and the subcutaneous tissue of the mouse were pinched with the thumb and the index finger of the left hand in the same direction as the mouse body; the skinfold thickness was measured 1 cm away from the pinched part of the left hand (near the center of the molding part) with a digital thickness gauge (with millesimal reading) held in the right hand (model BK-3281, manufacturer: Shanghai Niuhui). The thickness was in mm, and the actual thickness was the half of the measured thickness (the skin thickness=the measured value/2).
The ear thickness was measured daily (at the center of the auricle).
Skin photographs were taken daily from the first day of the test until the end of the test.
The clinical symptoms were evaluated with the PASI evaluation standard from three indicators of the erythema (Erythema), the scale (Scaling) and the skin thickness (Thickness), and scored with 0-4 points. The total score was obtained by summing the three scores. The PASI evaluation standard was as follows: 0, asymptomatic; 1, mild; 2, moderate; 3, severe; 4, extremely severe.
Erythema: 0—no erythema visible; 1—light red; 2—red; 3—dark red; 4—extremely dark red.
Scaling: 0—no visible scale on the skin surface; 1—part of the skin lesion surface covered with scales; 2—most of the skin lesion surface covered with scales; 3—almost all of the skin lesion region covered with scales; 4—all of the skin lesion region covered with scales.
Dryness and pruritus are not included in the total score.
On the 14th day of the test, the spleen weight was collected.
After the test, all mice were euthanized by excessive inhalation of carbon dioxide. The skin was collected and divided into four parts, one of which was fixed in a tissue fixative solution for 24 hours for the pathological is detection. It was dehydrated, then embedded in paraffin and made into 4-micron sections. Skin sections were stained with hematoxylin eosin to observe the infiltration of the stratum corneum, the epidermal layer, the dermis layer and the inflammatory cell. When measuring the thickness of the epidermal layer, the stained skin sections were scanned with a Leca Aperio CS2 scanner at 200×magnification, and then the histopathological changes were observed and scored.
The specific criteria of the pathological score were as follows: munro microabscess found in the epidermal layer 2.0 points; hyperkeratosis 0.5 points; parakeratosis 1.0 points; the thinning or disappearing of the granular layer 1.0 points; the thickening of acanthosis 1.0 points; the extension and fluctuation of cuticular process 0.5, 1.0 and 1.5 points respectively according to the mild, moderate and severe degrees. […]

SMILES: NC(=O)c1cnc(Nc2ccc3c(c2)OC[C@H]2CN(S(=O)(=O)C4CC4)CCN32)nc1NC1CC1 [Compound (I), (R)-4-(cyclopropylamino)-2-((3-(cyclopropylsulfonyl)-1,2,3,4,4a,5-hexahydrobenzo[b]pyrazolo[1,2-d][1,4]oxazin-8-yl)amino)pyrimidine-5-arboxamide]
- Ear thickness Left (3 mpk PO bid, 1st Day): 0.15 ± 0.00 mm
- Ear thickness Right (3 mpk PO bid, 1st Day): 0.15 ± 0.00 mm
- Ear thickness Right-Left (3 mpk PO bid, 1st Day): 0.00 ± 0.00 mm
- Skin PASI Total Score (3 mpk PO bid, 1st Day): 0.00 ± 0.00
- Skin PASI score Erythema (3 mpk PO bid, 1st Day): 0.00 ± 0.00
- Skin PASI score Scaling (3 mpk PO bid, 1st Day): 0.00 ± 0.00
- Skin PASI score Thickness (3 mpk PO bid, 1st Day): 0.00 ± 0.00
- Skin thickness (3 mpk PO bid, 1st Day): 0.32 ± 0.00 mm
- Ear thickness Left (3 mpk PO bid, 14th Day): 0.16 ± 0.00 mm
- Ear thickness Right (3 mpk PO bid, 14th Day): 0.48 ± 0.01 mm
- Ear thickness Right-Left (3 mpk PO bid, 14th Day): 0.32 ± 0.01 mm
- Skin PASI Total Score (3 mpk PO bid, 14th Day): 8.10 ± 0.23
- Skin PASI score Erythema (3 mpk PO bid, 14th Day): 3.00 ± 0.00
- Skin PASI score Scaling (3 mpk PO bid, 14th Day): 2.30 ± 0.15
- Skin PASI score Thickness (3 mpk PO bid, 14th Day): 2.80 ± 0.13
- Skin thickness (3 mpk PO bid, 14th Day): 0.51 ± 0.01 mm
- Epidermal thickness (3 mpk PO bid): 136.10 ± 5.96 μm
- IL-6 content in skin (ELISA) (3 mpk PO bid): 554.74 ± 88.14 pg/g
- Skin pathological score (3 mpk PO bid): 7.75 ± 0.39
- Spleen weight (3 mpk PO bid): 231.44 ± 12.72 mg
- Spleen weight/body weight (spleen index) (3 mpk PO bid): 14.46 ± 0.71 mg/g
- TNF-alpha content in skin (ELISA) (3 mpk PO bid): 1191.74 ± 124.81 pg/g
- Ear thickness Left (10 mpk PO bid, 1st Day): 0.14 ± 0.00 mm
- Ear thickness Right (10 mpk PO bid, 1st Day): 0.14 ± 0.00 mm
- Ear thickness Right-Left (10 mpk PO bid, 1st Day): 0.00 ± 0.00 mm
- Skin PASI Total Score (10 mpk PO bid, 1st Day): 0.00 ± 0.00
- Skin PASI score Erythema (10 mpk PO bid, 1st Day): 0.00 ± 0.00
- Skin PASI score Scaling (10 mpk PO bid, 1st Day): 0.00 ± 0.00
- Skin PASI score Thickness (10 mpk PO bid, 1st Day): 0.00 ± 0.00
- Skin thickness (10 mpk PO bid, 1st Day): 0.32 ± 0.00 mm
- Ear thickness Left (10 mpk PO bid, 14th Day): 0.15 ± 0.00 mm
- Ear thickness Right (10 mpk PO bid, 14th Day): 0.44 ± 0.00 mm
- Ear thickness Right-Left (10 mpk PO bid, 14th Day): 0.28 ± 0.00 mm
- Skin PASI Total Score (10 mpk PO bid, 14th Day): 7.70 ± 0.60
- Skin PASI score Erythema (10 mpk PO bid, 14th Day): 2.90 ± 0.10
- Skin PASI score Scaling (10 mpk PO bid, 14th Day): 2.40 ± 0.27
- Skin PASI score Thickness (10 mpk PO bid, 14th Day): 2.40 ± 0.27
- Skin thickness (10 mpk PO bid, 14th Day): 0.53 ± 0.02 mm
- Epidermal thickness (10 mpk PO bid): 131.63 ± 7.15 μm
- IL-6 content in skin (ELISA) (10 mpk PO bid): 641.83 ± 96.28 pg/g
- Skin pathological score (10 mpk PO bid): 7.45 ± 0.80
- Spleen weight (10 mpk PO bid): 182.01 ± 9.11 mg
- Spleen weight/body weight (spleen index) (10 mpk PO bid): 11.71 ± 0.56 mg/g
- TNF-alpha content in skin (ELISA) (10 mpk PO bid): 1432.02 ± 152.77 pg/g
- Ear thickness Left (30 mpk PO bid, 1st Day): 0.14 ± 0.00 mm
- Ear thickness Right (30 mpk PO bid, 1st Day): 0.14 ± 0.00 mm
- Ear thickness Right-Left (30 mpk PO bid, 1st Day): 0.00 ± 0.00 mm
- Skin PASI Total Score (30 mpk PO bid, 1st Day): 0.00 ± 0.00
- Skin PASI score Erythema (30 mpk PO bid, 1st Day): 0.00 ± 0.00
- Skin PASI score Scaling (30 mpk PO bid, 1st Day): 0.00 ± 0.00
- Skin PASI score Thickness (30 mpk PO bid, 1st Day): 0.00 ± 0.00
- Skin thickness (30 mpk PO bid, 1st Day): 0.32 ± 0.00 mm
- Ear thickness Left (30 mpk PO bid, 14th Day): 0.16 ± 0.00 mm
- Ear thickness Right (30 mpk PO bid, 14th Day): 0.41 ± 0.01 mm
- Ear thickness Right-Left (30 mpk PO bid, 14th Day): 0.26 ± 0.01 mm
- Skin PASI Total Score (30 mpk PO bid, 14th Day): 5.50 ± 0.31
- Skin PASI score Erythema (30 mpk PO bid, 14th Day): 2.90 ± 0.10
- Skin PASI score Scaling (30 mpk PO bid, 14th Day): 1.20 ± 0.13
- Skin PASI score Thickness (30 mpk PO bid, 14th Day): 1.40 ± 0.16
- Skin thickness (30 mpk PO bid, 14th Day): 0.50 ± 0.01 mm
- Epidermal thickness (30 mpk PO bid): 121.75 ± 8.17 μm
- IL-6 content in skin (ELISA) (30 mpk PO bid): 638.09 ± 59.63 pg/g
- Skin pathological score (30 mpk PO bid): 5.55 ± 0.90
- Spleen weight (30 mpk PO bid): 146.81 ± 7.71 mg
- Spleen weight/body weight (spleen index) (30 mpk PO bid): 9.27 ± 0.47 mg/g
- TNF-alpha content in skin (ELISA) (30 mpk PO bid): 1236.41 ± 100.8 pg/g
- Ear thickness Left (60 mpk PO bid, 1st Day): 0.14 ± 0.00 mm
- Ear thickness Right (60 mpk PO bid, 1st Day): 0.14 ± 0.00 mm
- Ear thickness Right-Left (60 mpk PO bid, 1st Day): 0.00 ± 0.00 mm
- Skin PASI Total Score (60 mpk PO bid, 1st Day): 0.00 ± 0.00
- Skin PASI score Erythema (60 mpk PO bid, 1st Day): 0.00 ± 0.00
- Skin PASI score Scaling (60 mpk PO bid, 1st Day): 0.00 ± 0.00
- Skin PASI score Thickness (60 mpk PO bid, 1st Day): 0.00 ± 0.00
- Skin thickness (60 mpk PO bid, 1st Day): 0.33 ± 0.01 mm
- Ear thickness Left (60 mpk PO bid, 14th Day): 0.15 ± 0.00 mm
- Ear thickness Right (60 mpk PO bid, 14th Day): 0.38 ± 0.01 mm
- Ear thickness Right-Left (60 mpk PO bid, 14th Day): 0.22 ± 0.01 mm
- Skin PASI Total Score (60 mpk PO bid, 14th Day): 4.60 ± 0.34
- Skin PASI score Erythema (60 mpk PO bid, 14th Day): 2.00 ± 0.15
- Skin PASI score Scaling (60 mpk PO bid, 14th Day): 1.20 ± 0.13
- Skin PASI score Thickness (60 mpk PO bid, 14th Day): 1.40 ± 0.16
- Skin thickness (60 mpk PO bid, 14th Day): 0.43 ± 0.02 mm
- Epidermal thickness (60 mpk PO bid): 113.28 ± 6.95 μm
- IL-6 content in skin (ELISA) (60 mpk PO bid): 499.72 ± 95.81 pg/g
- Skin pathological score (60 mpk PO bid): 5.05 ± 0.88
- Spleen weight (60 mpk PO bid): 125.73 ± 4.63 mg
- Spleen weight/body weight (spleen index) (60 mpk PO bid): 8.01 ± 0.28 mg/g
- TNF-alpha content in skin (ELISA) (60 mpk PO bid): 1188.81 ± 159.63 pg/g
